Measurements as given in paper PMC8344263, “Tetrahydroquinazole-based secondary sulphonamides as carbonic anhydrase inhibitors: synthesis, biological evaluation against isoforms I, II, IV, and IX, and computational studies” (Journal of Enzyme Inhibition and Medicinal Chemistry, 2021).
“And” between values parts separate entries of the source, which are not always exact repeats. Equal values may be shown once.

What was measured:
hCA IV = hCA IV (Homo sapiens, UniProt P22748); experiment: stopped-flow CO2 hydrase assay, hCA IV; conditions: for Ki ratio CA IV/CA IX: selectivity for hCA IX over hCA IV
Chain of hCA IV (P22748 19-312): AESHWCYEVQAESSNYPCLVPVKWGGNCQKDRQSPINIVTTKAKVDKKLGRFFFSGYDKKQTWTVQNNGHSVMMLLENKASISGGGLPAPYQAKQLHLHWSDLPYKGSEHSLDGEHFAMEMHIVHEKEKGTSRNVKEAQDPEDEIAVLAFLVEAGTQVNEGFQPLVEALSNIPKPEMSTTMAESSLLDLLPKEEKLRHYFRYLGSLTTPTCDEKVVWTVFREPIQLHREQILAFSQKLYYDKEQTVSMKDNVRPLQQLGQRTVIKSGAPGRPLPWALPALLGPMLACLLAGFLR
Experimental: (§1) An Applied Photophysics stopped-flow instrument was used for assaying the CA catalysed CO2 hydration activity[28]. […] The uncatalysed rates were determined in the same manner and subtracted from the total observed rates. Stock solutions of inhibitors (10 mM) were prepared in distilled-deionised water with 10% of DMSO and dilutions up to 0.01 µM were done thereafter with the assay buffer. The inhibitor and enzyme solutions were preincubated together for 15 min (standard assay at room temperature) prior to assay, to allow for the formation of the E-I complex. The inhibition constants were obtained by non-linear least-squares methods using PRISM 3 and the Cheng–Prusoff equation and represent the mean from at least three different determinations.

hCA IX = hCA IX (Homo sapiens, UniProt Q16790); experiment: stopped-flow CO2 hydrase assay, hCA IX; conditions: mean from three assays, errors ±5–10%
Experimental: as §1

hCA II = hCA II (Homo sapiens, UniProt P00918); experiment: stopped-flow CO2 hydrase assay, hCA II; conditions: for Ki ratio CA II/CA IX: selectivity for hCA IX over hCA II
Experimental: as §1

hCA I = hCA I (Homo sapiens, UniProt P00915); experiment: stopped-flow CO2 hydrase assay, hCA I; conditions: for Ki ratio CA I/CA IX: selectivity for hCA IX over hCA I
Chain of hCA I (P00915 whole entry): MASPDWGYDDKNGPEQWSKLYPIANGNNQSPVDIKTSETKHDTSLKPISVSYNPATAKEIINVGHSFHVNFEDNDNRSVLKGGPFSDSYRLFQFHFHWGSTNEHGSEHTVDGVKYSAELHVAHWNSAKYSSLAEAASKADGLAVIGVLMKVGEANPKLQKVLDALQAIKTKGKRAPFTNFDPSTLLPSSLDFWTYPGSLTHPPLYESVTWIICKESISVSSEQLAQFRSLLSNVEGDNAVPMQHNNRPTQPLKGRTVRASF
Experimental: as §1

Ki (hCA IV) [µM] | melting point [°C] | Ki (hCA IX) [µM] | Ki (hCA II) [µM] | Ki (hCA I) [µM] | Ki ratio CA IV/CA IX (hCA IV) | Ki ratio CA II/CA IX (hCA II) | Ki ratio CA I/CA IX (hCA I) | Compound
91.1 | 215 to 217 | 47.3 | 7.4 | 70.5 |  |  |  | CC1(C)CC(=O)c2cnc(Nc3ccc(S(=O)(=O)Nc4ccccc4)cc3)nc2C1 [Compound 9, 4-((7,7-Dimethyl-5-oxo-5,6,7,8-tetrahydroquinazolin-2-yl)amino)-N-phenylbenzenesulfonamide]
> 100 | 83 to 85 | 15.7 | 13 | 46.1 |  |  |  | Cc1ccc(NS(=O)(=O)c2ccc(Nc3ncc4c(n3)CC(c3ccccc3)CC4=O)cc2)cc1 (centres unmarked) [Compound 8, 4-((5-Oxo-7-phenyl-5,6,7,8-tetrahydroquinazolin-2-yl)amino)-N-(4-tolyl)benzenesulfonamide]
 | 258 to 260 |  |  |  |  |  |  | CC1(C)CC(=O)c2cnc(Nc3ccc(S(N)(=O)=O)cc3)nc2C1 [Compound 16c, 4-((5-oxo-7,7-dimethyl-5,6,7,8-tetrahydroquinazolin-2-yl)amino)benzenesulfonamide]
> 100 | 103 to 105 | 1.73 | 11.5 | 34 | > 57.8 | 6.6 | 19.6 | COc1ccc(NS(=O)(=O)c2ccc(Nc3ncc4c(n3)CC(c3ccccc3)CC4=O)cc2)cc1 (centres unmarked) [Compound 6, N-(4-methoxyphenyl)-4-((5-oxo-7-phenyl-5,6,7,8-tetrahydroquinazolin-2-yl)amino)benzenesulfonamide]
> 100 | 281 to 283 | 0.48 | 41.2 | 89.1 |  |  |  | O=C1CCCc2nc(Nc3ccc(S(=O)(=O)Nc4ccccc4)cc3)ncc21 [Compound 1, 4-((5-Oxo-5,6,7,8-tetrahydroquinazolin-2-yl)amino)-N-phenylbenzenesulfonamide]
78.1 | 210 to 212 | 48.1 | 5.1 | 24.7 |  |  |  | COc1ccc(NS(=O)(=O)c2ccc(Nc3ncc4c(n3)CC(C)(C)CC4=O)cc2)cc1 [Compound 10, 4-((7,7-Dimethyl-5-oxo-5,6,7,8-tetrahydroquinazolin-2-yl)amino)-N-(4-methoxyphenyl)benzenesulfonamide]
 | 294 to 296 |  |  |  |  |  |  | NS(=O)(=O)c1ccc(Nc2ncc3c(n2)CCCC3=O)cc1 [Compound 16a, 4-((5-oxo-5,6,7,8-tetrahydroquinazolin-2-yl)amino)benzenesulfonamide]
 | 214 to 215 |  |  |  |  |  |  | NS(=O)(=O)c1ccc(Nc2ncc3c(n2)CC(c2ccccc2)CC3=O)cc1 (centres unmarked) [Compound 16b, 4-((5-oxo-7-phenyl-5,6,7,8-tetrahydroquinazolin-2-yl)amino)benzenesulfonamide]
> 100 | 118 to 120 | 1.33 | 67.5 | > 100 | > 75.2 | 50.7 | > 75.2 | O=C1CC(c2ccccc2)Cc2nc(Nc3ccc(S(=O)(=O)Nc4ccc([N+](=O)[O-])cc4)cc3)ncc21 (centres unmarked) [Compound 7, N-(4-nitrophenyl)-4-((5-oxo-7-phenyl-5,6,7,8-tetrahydroquinazolin-2-yl)amino)benzenesulfonamide]
> 100 | 111 to 113 | 0.45 | > 100 | > 100 | > 222 |  | > 222 | O=C1CC(c2ccccc2)Cc2nc(Nc3ccc(S(=O)(=O)Nc4ccccc4)cc3)ncc21 (centres unmarked) [Compound 5, 4-((5-Oxo-7-phenyl-5,6,7,8-tetrahydroquinazolin-2-yl)amino)-N-phenylbenzenesulfonamide]
> 100 | 272 to 274 | 1.04 | > 100 | > 100 | > 96 and >100 [CA IV/CA IX]^b>96 | > 96 and >100 [CA II/CA IX]^b>96 | > 96 and >100 [CA I/CA IX]^b>96 | Cc1ccc(NS(=O)(=O)c2ccc(Nc3ncc4c(n3)CCCC4=O)cc2)cc1 [Compound 4, 4-((5-Oxo-5,6,7,8-tetrahydroquinazolin-2-yl)amino)-N-(4-tolyl)benzenesulfonamide]
62.1 | 246 to 248 | 19.3 | 22.4 | 84.9 |  |  |  | Cc1ccc(NS(=O)(=O)c2ccc(Nc3ncc4c(n3)CC(C)(C)CC4=O)cc2)cc1 [Compound 12, 4-((7,7-Dimethyl-5-oxo-5,6,7,8-tetrahydroquinazolin-2-yl)amino)-N-(p-tolyl)benzenesulfonamide]
> 100 | 233 to 235 | 0.46 | 50.3 | > 100 |  |  |  | COc1ccc(NS(=O)(=O)c2ccc(Nc3ncc4c(n3)CCCC4=O)cc2)cc1 [Compound 2, N-(4-methoxyphenyl)-4-((5-oxo-5,6,7,8-tetrahydroquinazolin-2-yl)amino)benzenesulfonamide]
> 100 | 264 to 266 | 0.42 | > 100 | > 100 |  |  |  | O=C1CCCc2nc(Nc3ccc(S(=O)(=O)Nc4ccc([N+](=O)[O-])cc4)cc3)ncc21 [Compound 3, N-(4-nitrophenyl)-4-((5-oxo-5,6,7,8-tetrahydroquinazolin-2-yl)amino)benzenesulfonamide]
> 100 | 264 to 266 | > 100 | 6.9 | 62 |  |  |  | CC1(C)CC(=O)c2cnc(Nc3ccc(S(=O)(=O)Nc4ccc([N+](=O)[O-])cc4)cc3)nc2C1 [Compound 11, 4-((7,7-Dimethyl-5-oxo-5,6,7,8-tetrahydroquinazolin-2-yl)amino)-N-(4-nitrophenyl)benzenesulfonamide]
